Experimental data from ChEMBL document CHEMBL1201862, “PubChem BioAssay data set” (2004).
Calls of active or inactive are those of the source.

Experiments:
[1] = biological target: T1, RNA-binding protein pos-1 (Caenorhabditis elegans, UniProt G5EF15); assay: inhibitors of POS-1/mex-3 RNA binding, dose response, biochemical, fluorescence polarization (AID 1964);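 also: purified POS-1 fused to maltose binding protein made in E. coli; potency of compounds blocking POS-1 binding to fluorescent RNA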
T1 sequence (G5EF15 whole entry): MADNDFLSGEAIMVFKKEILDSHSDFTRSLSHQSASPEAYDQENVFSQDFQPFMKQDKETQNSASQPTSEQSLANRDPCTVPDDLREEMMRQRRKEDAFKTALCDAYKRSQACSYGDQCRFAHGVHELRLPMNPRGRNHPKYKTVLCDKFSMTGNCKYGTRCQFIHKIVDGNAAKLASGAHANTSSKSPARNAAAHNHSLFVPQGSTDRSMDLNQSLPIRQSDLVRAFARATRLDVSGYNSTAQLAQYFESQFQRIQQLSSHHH

Troponin, cardiac muscle = Troponin, cardiac muscle (Homo sapiens, UniProt P19429+P45379+P63316); assay: Fluorescence-based biochemical high throughput dose response assay for activators of the calcium sensitivity of cardiac Regulated Thin Filaments (RTF). [Related pubchem assays (depositor defined):AID493008, AID493018, AID504382, AID504383]; assay type: protein-complex assay
[2] = biological target: T2, Zinc finger protein mex-5 (Caenorhabditis elegans, UniProt Q9XUB2); assay: MEX-5/TCR-2 RNA interaction inhibitors, dose response, biochemical, C. elegans, fluorescence polarization (AID 1960)
T2 sequence (Q9XUB2 whole entry): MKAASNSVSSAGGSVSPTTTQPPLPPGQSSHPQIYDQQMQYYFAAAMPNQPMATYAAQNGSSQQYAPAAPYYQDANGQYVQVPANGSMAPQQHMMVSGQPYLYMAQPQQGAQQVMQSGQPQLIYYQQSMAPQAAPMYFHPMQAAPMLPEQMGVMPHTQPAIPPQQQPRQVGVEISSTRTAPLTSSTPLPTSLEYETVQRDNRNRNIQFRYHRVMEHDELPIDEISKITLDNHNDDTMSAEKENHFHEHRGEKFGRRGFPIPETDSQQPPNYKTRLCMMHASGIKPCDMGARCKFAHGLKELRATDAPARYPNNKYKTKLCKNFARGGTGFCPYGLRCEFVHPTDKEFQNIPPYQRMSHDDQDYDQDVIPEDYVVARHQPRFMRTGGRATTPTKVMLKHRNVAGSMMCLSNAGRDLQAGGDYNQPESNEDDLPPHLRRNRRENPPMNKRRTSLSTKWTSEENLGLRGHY

[3] = biological target: Nucleotide-binding oligomerization domain-containing protein 2 (Homo sapiens, UniProt Q9HC29); assay: PubChem AID 2334; assay type: functional
[4] = biological target: T3, Nucleotide-binding oligomerization domain-containing protein 1 (Homo sapiens, UniProt Q9Y239); assay: NOD1 signaling inhibitors, SAR follow-up, revised (AID 2333); assay type: functional
T3 sequence (Q9Y239 whole entry): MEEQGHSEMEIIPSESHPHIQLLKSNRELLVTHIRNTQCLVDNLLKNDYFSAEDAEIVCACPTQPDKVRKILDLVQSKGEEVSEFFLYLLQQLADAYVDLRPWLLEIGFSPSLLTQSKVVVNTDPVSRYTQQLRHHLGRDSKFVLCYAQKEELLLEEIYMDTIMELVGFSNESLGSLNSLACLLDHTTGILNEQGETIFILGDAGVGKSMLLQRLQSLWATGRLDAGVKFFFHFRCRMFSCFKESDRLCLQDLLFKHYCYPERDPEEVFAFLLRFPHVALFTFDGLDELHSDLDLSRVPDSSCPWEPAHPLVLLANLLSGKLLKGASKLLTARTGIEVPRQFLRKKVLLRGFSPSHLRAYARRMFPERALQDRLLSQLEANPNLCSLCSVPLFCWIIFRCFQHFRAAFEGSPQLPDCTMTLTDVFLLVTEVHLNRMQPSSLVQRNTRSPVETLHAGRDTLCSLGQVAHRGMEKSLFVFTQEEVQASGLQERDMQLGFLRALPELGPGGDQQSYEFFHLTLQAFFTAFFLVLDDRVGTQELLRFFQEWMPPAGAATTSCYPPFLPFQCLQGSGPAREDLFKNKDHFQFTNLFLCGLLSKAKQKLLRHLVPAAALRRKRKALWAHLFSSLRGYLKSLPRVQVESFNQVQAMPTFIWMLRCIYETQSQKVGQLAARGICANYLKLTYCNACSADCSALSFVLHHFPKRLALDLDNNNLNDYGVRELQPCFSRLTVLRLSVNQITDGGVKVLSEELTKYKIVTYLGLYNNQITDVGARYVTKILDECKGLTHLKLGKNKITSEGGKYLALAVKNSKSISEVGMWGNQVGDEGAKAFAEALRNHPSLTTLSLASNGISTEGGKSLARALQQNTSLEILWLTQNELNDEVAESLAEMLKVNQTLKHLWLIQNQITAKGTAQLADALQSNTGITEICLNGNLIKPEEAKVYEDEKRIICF

HEK293 = assay: cells; details: Homo sapiens
Tumor necrosis factor = Tumor necrosis factor (Homo sapiens, UniProt P01375); assay: TNFa-triggered NF-kB activation inhibitors, SAR follow-up, cell-based, revised (AID 2337); assay type: functional
[5] = biological target: Glyceraldehyde-3-phosphate dehydrogenase (Homo sapiens, UniProt P04406)
[6] = biological target: T4, Alkaline phosphatase, tissue-nonspecific isozyme (Homo sapiens, UniProt P05186); assay: human TNAP enzyme inhibitors, SAR follow-up, biochemical, luminescent, dose response (AID 1056)
T4 sequence (P05186 whole entry): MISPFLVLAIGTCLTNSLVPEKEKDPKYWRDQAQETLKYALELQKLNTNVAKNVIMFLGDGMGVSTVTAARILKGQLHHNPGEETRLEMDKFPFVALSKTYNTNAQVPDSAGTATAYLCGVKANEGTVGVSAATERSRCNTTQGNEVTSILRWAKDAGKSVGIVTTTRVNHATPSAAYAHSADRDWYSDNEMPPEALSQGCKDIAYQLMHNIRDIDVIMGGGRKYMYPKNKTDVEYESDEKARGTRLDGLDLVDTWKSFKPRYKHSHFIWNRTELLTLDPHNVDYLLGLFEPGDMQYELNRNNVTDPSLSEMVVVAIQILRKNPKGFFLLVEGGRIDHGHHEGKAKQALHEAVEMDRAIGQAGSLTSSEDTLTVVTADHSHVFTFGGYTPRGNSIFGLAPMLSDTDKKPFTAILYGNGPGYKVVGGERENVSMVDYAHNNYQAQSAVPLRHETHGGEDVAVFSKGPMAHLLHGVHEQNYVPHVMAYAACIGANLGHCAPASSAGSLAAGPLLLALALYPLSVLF

[7] = biological target: Dual specificity protein kinase CLK1 (Homo sapiens, UniProt P49759); assay: CLK1 kinase inhibitors, off-target check, dose response, selectivity assay for Dyrk1A inhibitor project, biochemical, cherry-picked samples (AID 588811)
Vero [8] = assay: cells; assay type: functional; details: Chlorocebus sabaeus
Vero [9] = assay: cells; assay type: functional, cell-based; details: Chlorocebus sabaeus
H4 = assay: Luminescence Cell-Based Dose Response HTS to Identify Activators of 5'UTR Stem-Loop Driven Prion Protein mRNA Translation in H4 Neuroglioblastoma Cells. [Related pubchem assays: 1829 (Project Summary), 1814 (Primary HTS)]; assay type: functional; details: Homo sapiens
HeLa = assay: HeLa cell cytotoxicity, dose response, cytotoxicity control for MITF activator project, CellTiter-Glo luminescence, cherry-pick samples (AID 540259); assay type: functional, cell-based; details: Homo sapiens
X-box-binding protein 1 = biological target: T5, X-box-binding protein 1 (Homo sapiens, UniProt P17861); assay type: functional, Cricetulus griseus;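 also: confirmatory dose-response counter-screen serving a CHOP assay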
T5 sequence (P17861 whole entry): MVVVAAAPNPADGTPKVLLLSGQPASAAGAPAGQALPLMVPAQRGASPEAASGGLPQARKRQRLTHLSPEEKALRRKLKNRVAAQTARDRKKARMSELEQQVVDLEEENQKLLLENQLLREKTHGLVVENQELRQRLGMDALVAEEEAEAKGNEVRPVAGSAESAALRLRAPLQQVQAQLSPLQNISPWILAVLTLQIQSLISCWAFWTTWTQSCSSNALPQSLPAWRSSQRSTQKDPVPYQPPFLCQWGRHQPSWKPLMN

[10] = Luminescence Cell-Based Dose Response HTS to Identify Activators of Luciferase Translation or Activity in H4 […] Cells. [Related pubchem assays: 1829 (Project Summary), 1814 (Primary HTS)]; assay type: functional
[11] = biological target: DNA damage-inducible transcript 3 protein (Mus musculus, UniProt P35639); assay type: functional, Cricetulus griseus
A-375 = assay: A375 melanoma cell viability reduction, dose response, counter-screen for MITF modulator project, cherry-pick samples, set 2 (AID 540335); assay type: functional, cell-based; details: Homo sapiens
[12] = biological target: T6, Microphthalmia-associated transcription factor (Homo sapiens, UniProt O75030); assay: TRPM1 promoter luciferase signal decrease, dose response, MITF inhibitor project, cell-based, SK-MEL-5, cherry-picked, set 3 (AID 493073); assay type: functional
T6 sequence (O75030 whole entry): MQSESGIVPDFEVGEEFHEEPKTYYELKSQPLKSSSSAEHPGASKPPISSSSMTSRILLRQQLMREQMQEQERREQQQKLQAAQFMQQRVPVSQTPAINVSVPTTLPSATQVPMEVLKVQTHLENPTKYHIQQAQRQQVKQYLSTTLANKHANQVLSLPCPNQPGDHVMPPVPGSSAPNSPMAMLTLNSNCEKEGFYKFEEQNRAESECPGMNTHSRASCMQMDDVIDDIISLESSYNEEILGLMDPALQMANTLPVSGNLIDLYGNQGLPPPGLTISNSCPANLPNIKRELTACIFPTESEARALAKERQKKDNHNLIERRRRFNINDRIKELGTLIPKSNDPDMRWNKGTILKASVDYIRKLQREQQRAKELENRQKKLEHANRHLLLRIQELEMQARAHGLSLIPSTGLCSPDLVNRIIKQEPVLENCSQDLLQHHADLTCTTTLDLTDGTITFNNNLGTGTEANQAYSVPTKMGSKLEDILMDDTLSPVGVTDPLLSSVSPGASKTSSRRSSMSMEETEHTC

[13] = biological target: Dual specificity tyrosine-phosphorylation-regulated kinase 1A (Rattus norvegicus, UniProt Q63470); assay type: biochemical, Homo sapiens
[14] = biological target: T7, Mannose-6-phosphate isomerase (Homo sapiens, UniProt P34949); assay: human PMI inhibitors, high substrate, primary screen, biochemical, fluorescence intensity, high mannose 6-phosphate (AID 1220)
T7 sequence (P34949 whole entry): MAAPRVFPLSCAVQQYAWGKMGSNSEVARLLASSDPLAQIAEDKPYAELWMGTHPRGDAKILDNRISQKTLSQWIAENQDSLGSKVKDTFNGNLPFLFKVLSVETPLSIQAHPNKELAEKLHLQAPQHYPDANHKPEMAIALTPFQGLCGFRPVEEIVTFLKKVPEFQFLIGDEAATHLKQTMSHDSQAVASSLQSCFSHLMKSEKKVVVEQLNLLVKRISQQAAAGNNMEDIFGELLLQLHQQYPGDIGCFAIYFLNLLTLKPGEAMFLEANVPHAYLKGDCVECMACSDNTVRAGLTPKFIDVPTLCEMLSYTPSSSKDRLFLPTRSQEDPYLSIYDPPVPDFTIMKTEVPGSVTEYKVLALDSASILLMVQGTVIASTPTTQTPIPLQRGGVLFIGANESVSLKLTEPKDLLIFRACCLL

[15] = inhibitors of intracellular T. cruzi replication, confirmation, NIH3T3 host cells, beta-gal luminescence (AID 2044); assay type: functional, cell-based;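 also: intracellular parasites grown in NIH/3T3 mouse fibroblasts as host cells; luminescent beta-galactosidase reporter signal from transgenic T. cruzi replicating inside host cells; inhibitors lower the luminescence signal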
[16] = cytotoxicity toward NIH3T3 fibroblasts, dose response, counter-screen, cell-based, ATP luminescence, mouse fibroblasts (AID 2010); assay type: functional;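 also: cells exposed to compound for about 90 hours before reading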
[17] = HEp-2 cell cytotoxicity, dose response, cytotoxicity control for RSV inhibitor project, HTS (AID 2410); assay type: functional; details: human respiratory syncytial virus

## CN(C)CCN(C)Cc1c2ccccc2c(CN(C)CCN(C)C)c2ccccc12
[1]
  EC50: 12.1 µM (active)
Troponin, cardiac muscle
  EC50: 34.3 µM (inactive)
[2]
  EC50: 10.2 µM (active)

## O=C(NC1CCCc2c1cnn2-c1ccccc1F)c1cc(-c2ccccc2)n[nH]1 (stereo not drawn)
[3]
  IC50: > 20 µM (inactive)
[4]
  IC50: 16.9 µM (active)
HEK293
  IC50: > 20 µM (inactive)
Tumor necrosis factor
  IC50: 10.7 µM (active)

## CC(C)c1cc(C(C)C)c(S(=O)(=O)Nc2cnc3ccccc3c2)c(C(C)C)c1
[5]
  IC50: > 100 µM (not active)
[6]
  IC50: > 100 µM (inactive)

## O=C(NC1CCCc2c1cnn2-c1ccccc1F)c1ccnn1-c1ccccc1 (stereo not drawn)
[3]
  IC50: > 20 µM (inactive)
[4]
  IC50: > 20 µM (inactive)
HEK293
  IC50: > 20 µM (inactive)
Tumor necrosis factor
  IC50: > 20 µM (inactive)

## c1csc(CCNc2ncnc3ccc(-c4ccc5c(c4)OCO5)cc23)c1
[7]
  AC50: < 0.00195 µM (active)

## CC(NC(=O)c1ccc([N+](=O)[O-])o1)C1CC2CCC1C2 (stereo not drawn)
Vero [8]
  CC50: 19.9 µM (active)
Vero [9]
  IC50: > 25 µM (active)

## Cc1cc2c([nH]c3ccccc32)c2c1OC(C)(C)C=C2 [GRINIMIBINE]
H4
  EC50: 20.6 µM (active)
HeLa
  AC50: 41.3 µM (active)
X-box-binding protein 1
  Absolute IC50 (XBP1): 10 µM
[10]
  EC50: 27.7 µM (active)
[11]
  Absolute IC50 (CHOP): 10 µM

## Cc1n[nH]c(NC=C2C(=O)CC(c3ccco3)CC2=O)c1-c1ccc(Cl)cc1 (stereo not drawn)
X-box-binding protein 1
  Absolute IC50 (XBP1): 10 µM
[11]
  Absolute IC50 (CHOP): 10 µM

## CCOc1c(Br)cc(CNC2CCCCCCC2)cc1OC
A-375
  AC50: 21.9 µM (active)
[12]
  AC50: 20.5 µM (active)

## O=C(NCc1ccc(Cl)cc1)C1CCN(c2cnccn2)CC1
Troponin, cardiac muscle
  EC50: > 71.4 µM (inactive)

## COc1ccc(NC(S)=Nc2cccc3cnccc23)cc1
[13]
  AC50: 7.84 µM (active)
[14]
  IC50: > 50 µM (not active)

## c1cncc(CNc2ccnc(-c3ccc4[nH]ncc4c3)n2)c1
[7]
  AC50: 0.385 µM (active)

## COc1ccc(Br)cc1S(=O)(=O)Nc1ccc2ncccc2c1
[5]
  IC50: > 100 µM (not active)
[6]
  IC50: > 100 µM (inactive)

## O=C(O)COc1ccc(/C=C/c2nc3ccc([N+](=O)[O-])cc3s2)cc1
[13]
  AC50: 0.348 µM (active)
[7]
  AC50: 0.4 µM (active)
[15]
  EC50: > 60 µM (not active)
[16]
  EC50: > 60 µM (not active)

## Cc1csc(NC(=O)Cc2coc3cc(C)c(C(C)C)cc23)n1
Vero [8]
  CC50: 23 µM (active)
Vero [9]
  IC50: 9.7 µM (active)
[17]
  CC50: 6.08 µM (active)
